In PubChem BioAssay AID1195 (EPA DSSTox, 2008):

Test system: human maximum recommended daily dose, FDA database
Assay: DSSTox (FDAMDD) FDA Maximum (Recommended) Daily Dose Database
Settings: hits give low values
Text: The Food and Drug Administration (FDA) Center for Drug Evaluation and Research, Office of Pharmaceutical Science, Informatics and Computational Safety Analysis Staff's Maximum Recommended Daily Dose (FDAMDD) database contains values for over 1200 pharmaceuticals listed in Martindale: The Extra Pharmacopoeia (1973, 1983, and 1993) and The Physicians' Desk Reference (1995 and 1999). Some classes of chemicals were excluded from the FDAMDD database due to their unsuitability for most QSAR modeling programs. These were inorganic chemicals, high molecular weight polymers (>5000 Daltons), fibers, salts, mixtures of organic chemicals, and small molecules (<100 Daltons). FDAMDD is the non-proprietary portion of the database that was used in the QSAR analysis reported in the Main Citation. DSSTox FDAMDD has fewer substance records than the original MRDD Source database due to consolidation of partial structures (i.e., complexed entities) into a single record and elimination of duplicate entries. DSSTox FDAMDD also differs from the MRDD Source database in presenting complete structural information pertaining to the actual salt or complexed form corresponding to the listed ChemicalName and CASRN. According to the Source authors, there are a number of cases where multiple related forms or derivatives of a drug were listed as separate records but were assumed to fall under the same clinical toxicity assessment and, therefore, assigned the same Dose_MRDD_mg activity value. For the DSSTox FDAMDD, we have labeled these derivatives in the ChemClass_MRDD_grouping field and provide their counts in the ChemicalReplicateCount field to highlight their special nature.
Maximum recommended daily dose (or maximum recommended therapeutic dose) values were determined from pharmaceutical clinical trials that employed an oral route of exposure and daily treatments, usually for 3-12 months. Drugs were given as single or divided dose treatment regimens to achieve desired pharmacological effects. Roughly 5% of the pharmaceuticals in the FDAMDD data file were antineoplastics and anesthetics and were administered intravenously and/or intramuscularly. When separate MRDDs were reported for different routes of exposure, only the oral MRDD was included in the data file and only MRDD values reported for the average adult patient were used. Pharmaceuticals that are administered orally are usually tested over a limited range of doses and have MRDDs reported as mg/day. The mg/day unit was converted to mg/kg-body weight (bw)/day based upon an average adult weighing 60 kg. In contrast, the dose unit for most antineoplastic drug MRDDs is reported as mg/m2 which was converted to mg/kg-bw/day using the formula mg/kg-bw/day = mg/m2/37 for an average adult. Additionally, a few drugs had MRDDs reported in parts per million (ppm) which were converted to mg/kg-bw/day on the basis that 1000 ppm equals 25 mg/kg-bw/day for an average 60 kg adult. Activity Score is mapping of LOG10(1/Dose_MRDD_mmol) spanning activity range [MIN, MAX] onto Integer 1-100 Activity range, where 100 is highest potency and 1 is lowest potency: ActivityScore = 100 * INTEGER[(LOGINV_MRDD_mmol - MIN)/(MAX […] MIN)]. Activity Outcome is "active" for all substances, since Dose_MRDD_mmol is reported for all substances.

[1] = TherapeuticCategory: glucocorticoid
[2] = TherapeuticCategory: bronchodilator
[3] = TherapeuticCategory: antibacterial
[4] = TherapeuticCategory: antineoplastic

Work on `N[C@@H](CCC(=O)N[C@@H](CS)C(=O)NCC(=O)O)C(=O)O` yielded a maximum recommended daily dose (mmol/kg-bw/day) (TherapeuticCategory: none) of 0.0163.
For `C[C@]12CCC(=O)C=C1CC[C@@H]1[C@@H]2C(=O)C[C@@]2(C)[C@H]1CC[C@]2(O)C(=O)CO`, the maximum recommended daily dose (mmol/kg-bw/day) [1] was 0.0139.
Work on `CCC(=O)O[C@]1(c2ccccc2)CCN(C)C[C@@H]1C` yielded a maximum recommended daily dose (mmol/kg-bw/day) (TherapeuticCategory: narcotic analgesic) of 0.00191.
Work on `COc1cc(C(=O)N2CCOCC2)cc(OC)c1OC` yielded a maximum recommended daily dose (mmol/kg-bw/day) (TherapeuticCategory: sedative) of 0.178.
`CCCCCCCCCCCCCCCCCC(=O)OCC(=O)OCC(=O)[C@@]1(O)CC[C@H]2[C@@H]3CCC4=CC(=O)C=C[C@]4(C)[C@H]3[C@@H](O)C[C@@]21C` showed a maximum recommended daily dose (mmol/kg-bw/day) [1] of 0.00486.
In the case of `CC(=O)NO`, the maximum recommended daily dose (mmol/kg-bw/day) (TherapeuticCategory: antiurolithic, antibacterial adjunct) is reported as 0.222.
`CN(C)C(=O)Oc1cccc([N+](C)(C)C)c1` showed a maximum recommended daily dose (mmol/kg-bw/day) (TherapeuticCategory: cholinergic) of 0.028.
For `Cn1c(=O)c2c(ncn2CC2OCCO2)n(C)c1=O`, the maximum recommended daily dose (mmol/kg-bw/day) [2] was 0.05.
Work on `C[N+]1(C)CCC(OC(=O)CC(O)(c2ccccc2)C2CCCC2)C1` (stereo not given) yielded a maximum recommended daily dose (mmol/kg-bw/day) (TherapeuticCategory: anticholinergic) of 0.000162.
For `CCn1cc(C(=O)O)c(=O)c2cc(F)c(N3CCNCC3)nc21`, the maximum recommended daily dose (mmol/kg-bw/day) [3] was 0.0624.
`COc1ccccc1OCC(O)COC(N)=O` (stereo not given) gave a maximum recommended daily dose (mmol/kg-bw/day) (TherapeuticCategory: skeletal muscle relaxant) of 0.415.
With `OC[C@@]1(O)OC[C@@H](O)[C@@H](O)[C@@H]1O` the maximum recommended daily dose (mmol/kg-bw/day) (TherapeuticCategory: fluid and nutrient replenisher, ferric form as hematinic) was 2.31.
`Cc1ccc(C(=O)Oc2ccc(C(O)CNC(C)(C)C)cc2OC(=O)c2ccc(C)cc2)cc1` (stereo not given) showed a maximum recommended daily dose (mmol/kg-bw/day) [2] of 8.02e-05.
Work on `C[C@H]1O[C@@H](n2cc(F)c(=O)[nH]c2=O)[C@H](O)[C@@H]1O` yielded a maximum recommended daily dose (mmol/kg-bw/day) [4] of 0.0812.
`Cn1c(=O)c2c(ncn2CC(O)CO)n(C)c1=O` (stereo not given) gave a maximum recommended daily dose (mmol/kg-bw/day) [2] of 0.236.
Work on `CC(C)C[C@H](N)C(=O)O` yielded a maximum recommended daily dose (mmol/kg-bw/day) (TherapeuticCategory: nutrient) of 0.762.
`CC(=O)[C@@]12O[C@](C)(c3ccccc3)O[C@@H]1C[C@H]1[C@@H]3CCC4=CC(=O)CC[C@]4(C)[C@H]3CC[C@@]12C` was tested, and the maximum recommended daily dose (mmol/kg-bw/day) (TherapeuticCategory: acne treatment) was 0.00557.
`CN(C)CCOC(C)(c1ccccc1)c1ccc(Cl)cc1` (stereo not given) gave a maximum recommended daily dose (mmol/kg-bw/day) (TherapeuticCategory: antiamebic) of 0.123.
For `CC/C=C(\C)C1(CC)C(=O)NC(=O)NC1=O`, the maximum recommended daily dose (mmol/kg-bw/day) (TherapeuticCategory: sedative, hypnotic) was 0.0148.
Compound `CC(=O)N[C@H]1[C@H]([C@H](O)[C@H](O)CO)OC(C(=O)O)=C[C@@H]1N=C(N)N` has a maximum recommended daily dose (mmol/kg-bw/day) (TherapeuticCategory: neuraminidase inhibitors) of 0.001.
`Cc1onc(-c2c(Cl)cccc2Cl)c1C(=O)N[C@@H]1C(=O)N2[C@@H]1SC(C)(C)[C@@H]2C(=O)O` gave a maximum recommended daily dose (mmol/kg-bw/day) [3] of 0.0355.
`CCc1cc2c(s1)-n1c(C)nnc1CN=C2c1ccccc1Cl` was tested, and the maximum recommended daily dose (mmol/kg-bw/day) (TherapeuticCategory: anxiolytic) was 0.000195.
In the case of `CN[C@@H]1[C@@H](O)[C@@H](O[C@@H]2[C@@H](O)[C@H](O[C@H]3O[C@H](C(C)N)CC[C@H]3N)[C@@H](N)C[C@H]2N)OC[C@]1(C)O` (stereo not given in full), the maximum recommended daily dose (mmol/kg-bw/day) [3] is reported as 0.00647.
`C[C@]12C=CC(=O)C=C1CC[C@@H]1[C@@H]2[C@@H](O)C[C@@]2(C)[C@H]1CC[C@]2(O)C(=O)CO` gave a maximum recommended daily dose (mmol/kg-bw/day) [1] of 0.00924.
Compound `Cc1cc2nc3c(=O)[nH]c(=O)nc-3n(C[C@H](O)[C@H](O)[C@H](O)CO)c2cc1C` has a maximum recommended daily dose (mmol/kg-bw/day) (TherapeuticCategory: enzyme cofactor vitamin) of 0.00133.
In the case of `NNc1nnc(NN)c2ccccc12`, the maximum recommended daily dose (mmol/kg-bw/day) (TherapeuticCategory: antihypertensive) is reported as 0.0175.
With `C[C@]12CC[C@H]3[C@@H](CC=C4C[C@@H](O)CC[C@@]43C)[C@@H]1CC[C@@H]2O` the maximum recommended daily dose (mmol/kg-bw/day) (TherapeuticCategory: anabolic) was 0.00861.
`CCS(=O)(=O)CCn1c([N+](=O)[O-])cnc1C` was tested, and the maximum recommended daily dose (mmol/kg-bw/day) (TherapeuticCategory: antiprotozoal, antiamebic) was 0.135.
`Oc1c(I)cc(Cl)c2cccnc12` was tested, and the maximum recommended daily dose (mmol/kg-bw/day) (TherapeuticCategory: topical anti infective, antiamebic) was 0.0818.
`COc1cc([C@@H]2c3cc4c(cc3C(O[C@@H]3O[C@@H]5CO[C@@H](C)O[C@H]5[C@H](O)[C@H]3O)C3COC(=O)[C@@H]32)OCO4)cc(OC)c1O` (stereo not given in full) was tested, and the maximum recommended daily dose (mmol/kg-bw/day) [4] was 0.00459.
